Results on two compounds are retold here after patent US20230357242A1, “COMPOUND AS AKT KINASE INHIBITOR” (CHIA TAI TIANQING PHARMACEUTICAL GROUP CO., LTD., priority 2020, published 2023).

Each structure is given as a SMILES string. Read-outs that look alike come from different tables or passages of the source.

One series concerns LNcap cells. As to the kind of experiment: Inhibitory effect on proliferation of LNcap cells (CCK-8, 72 h). In kind it is cell-based. To be noted: Homo sapiens, LNcap cells, CCK-8, read-out: LNcap cells IC50. As for the experimental part: A dish of LNcap cells (human prostate cancer cells with PTEN deficiency) growing at log phase and in good conditions were taken and digested for 3 min by using 1 mL of pancreatin, then the mixture was added with 4 mL of complete culture medium to terminate digestion, and the cells were added to a centrifuge tube. 20 μL of cells were taken and counted, the required number of cells (mL) was pipetted and centrifuged at 1200 rpm for 5 min, the supernatant was discarded, and an appropriate amount of plating medium (RPMI medium+5% FBS+1% sodium pyruvate+1% glutamine) was added to adjust the cell density to 3×10^4 cells/mL. The cells were seeded on a 96-well plate at 100 μL/well using a multi-channel pipette and cultured in a cell incubator at 37° C., 5% CO2 and saturated humidity. After incubation overnight, compounds were loaded using a nanoliter pipettor, 2 duplicate wells were set for each concentration, and cells without compound were used as negative controls. After 72 h, CCK-8 was added at 10 μL/well for incubation for 4 h, then absorbance was measured at 450 nm with an Envision plate reader, and inhibition rate was calculated. Inhibition rate (%)=(mean value of negative control group−mean value of experimental group)/(mean value of negative control group−mean value of blank group)×100%. A dose-response curve was fitted by four-parameter analysis, with the logarithm of compound concentration as abscissa and inhibition rate as ordinate, so that IC50 was calculated.

Another series addresses T1, AKT1 (S473) (Homo sapiens, UniProt P31749).
T1 construct: endogenous in cells; host or cells: LNcap cells
As to the kind of experiment: Inhibitory effect on phosphorylation of LNcap cells AKT1 (S473). The class given is cell-based. To be noted: 1 h incubation. As for the experimental part: LNcap cells AKT1 (S473) growing at log phase were taken, digested with 1 mL of pancreatin for 3 min, and added with 4 mL of complete medium to terminate digestion. The cells were added to a centrifuge tube. 20 μL of cells were taken and counted, the required number of cells (mL) was taken and centrifuged at 1200 rpm for 5 min, and a plating medium (2% FBS+phenol-free red 1640 base medium+1% sodium pyruvate+1% glutamine) was added to adjust the cell density to about 1×10E6 cells/mL. The cells were plated (96 wells) at the above cell density (100 μL/well), and cultured in a cell incubator at 37° C., 5% CO2 overnight; the next day, according to the plate distribution, the corresponding compound was sprayed using a nanoliter pipettor and incubated for 1 h at 37° C. in a cell incubator containing 5% CO2; the supernatant was discarded, and the plate was added with 40 μL of lysis buffer (1×) containing blocking buffer and incubated by shaking at room temperature for 30 min. After the mixture was mixed, 16 μL of lysate was transferred to another 384-well small-volume white plate. The plate was added with 4 μL of pre-mixed antibody (v/v) in assay buffer, covered, centrifuged to mix well, and incubated overnight at room temperature. The 665 nm/620 nm signal value was detected using a PE Envision multi-functional microplate reader, and IC50 was calculated by four-parameter fitting.

Series [1] can be described thus: Pharmacokinetic evaluation in mice. The class given is in vivo. The arrangement: Cl: unit not given here. The conditions noted are these: ICR mice; for AUC(0-inf) / AUC(0-t) / Cmax / Tmax / bioavailability / MRT last / Vd: mouse, plasma; for bioavailability: IG 10 mg/kg vs IV 1 mg/kg, read-out: Absolute bioavailability F %; for MRT last: read-out: MRT(0-t). As for the experimental part: ICR mice, weight 18-22 g, after adaption for 3-5 days, were randomly divided into 4 groups of 9 mice, each group was intragastrically (IG) administered with compound 28 or compound 30 at a dose of 10 mg/kg, or intravenously (IV) administered with compound 28 or compound 30 at a dose of 1 mg/kg.
The animals to be tested (ICR mice) were fasted for 12 h before administration and food was provided 4 h after administration, and water was freely drunk before and after the experiment and during the experiment.
After intragastric administration, about 0.1 mL of blood was taken from eye sockets at 15 min, 30 min, 1 h, 2 h, 3 h, 4 h, 6 h, 8 h, 10 h, and 24 h; after intravenous injection, about 0.1 mL of blood was taken from eye sockets at 5 min, 10 min, 30 min, 1 h, 2 h, 4 h, 6 h, 8 h, 10 h, and 24 h; each mouse was collected at 3-4 time points and 3 mice were collected at each time point, whole blood was collected, placed in centrifuge tubes containing EDTA-K2, and stored at 4° C. within 1 h, and the plasma was separated off by centrifugation at 4° C. and 4000 rpm for 10 min. All the plasma samples were collected and immediately stored at −20° C. for testing. 30 μL of the plasma sample to be tested and a standard curve sample were pipetted and added with 300 μL of acetonitrile solution containing an internal standard (20 ng/mL diazepam), shaken and mixed well for 5 min, and centrifuged at 13,000 rpm for 10 min. 80 μL of supernatant was taken and diluted with 80 μL of ultrapure water. After being mixed well, 2 μL of the resulting sample was taken for liquid chromatography-mass determination, and a chromatogram was recorded.
Oral and intravenous exposure of the compound of the present application was evaluated by in vivo pharmacokinetic experiment in mice.

T1 sequence (P31749 whole entry): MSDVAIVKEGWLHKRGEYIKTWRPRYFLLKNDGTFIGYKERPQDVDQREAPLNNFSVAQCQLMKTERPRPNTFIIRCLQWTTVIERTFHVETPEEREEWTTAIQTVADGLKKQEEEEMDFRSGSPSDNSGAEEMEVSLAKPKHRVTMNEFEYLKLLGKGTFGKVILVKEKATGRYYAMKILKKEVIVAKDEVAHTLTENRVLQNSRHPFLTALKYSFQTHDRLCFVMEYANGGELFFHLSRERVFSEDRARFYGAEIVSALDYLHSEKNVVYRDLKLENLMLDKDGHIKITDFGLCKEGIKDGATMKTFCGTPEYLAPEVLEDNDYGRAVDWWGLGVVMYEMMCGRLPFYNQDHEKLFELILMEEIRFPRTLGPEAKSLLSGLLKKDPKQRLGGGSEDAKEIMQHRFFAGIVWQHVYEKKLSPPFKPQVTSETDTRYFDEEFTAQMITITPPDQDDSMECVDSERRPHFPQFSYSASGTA

As usually defined, the IC50 is the concentration needed to halve the response being measured. What is called AUC(0-inf) is total exposure, with the tail of the curve extrapolated. Broadly, the AUC(0-t) is exposure summed from dosing to a finite time, without extrapolation to infinity. For orientation: Cmax means the maximum level reached in the sampled fluid or tissue. In general, Tmax refers to the time at which the peak concentration occurs. A word on the bioavailability: it is the share of a dose that reaches the circulation, judged against a reference dose that is usually intravenous. The term Vd denotes the apparent volume that relates the amount in the body to the concentration in plasma or blood. In the case of `CC(=O)N1CC2(CCN(c3cccc(-c4ccc5nc(-c6cccnc6N)n(-c6ccc(C7(N)CCC7)cc6)c5n4)c3F)CC2)C1` [Compound 44], the IC50 with LNcap cells amounted to 1.7 nM. For the same compound, the IC50 on AKT1 (S473) was 12 nM. Also, the t1/2z in series [1] (IG 10 mg/kg) was found to be 3.61 h. In addition, in series [1] (IV 1 mg/kg), the Cl stood at 0.206, the t1/2z is reported as 1.34 h, the AUC(0-inf) worked out at 4840 ng·h/mL and the AUC(0-t) is 4840 ng·h/mL. In addition, in series [1] (IV 1 mg/kg), the Vd was found to be 0.398 L/kg and the MRT last was determined as 0.817 h. Also, in series [1] (po, IG 10 mg/kg), the AUC(0-inf) stood at 25100 ng·h/mL, the AUC(0-t) is 25000 ng·h/mL, the Cmax turned out to be 4960 ng/mL and the Tmax came out at 2 h. In addition, the MRT last in series [1] (po, IG 10 mg/kg) was 3.58 h. Moreover, the bioavailability in series [1] (po) came to 51.7%.

As to `CN1CC2(CCN(c3cccc(-c4ccc5nc(-c6cccnc6N)n(-c6ccc(C7(N)CCC7)cc6)c5n4)c3F)CC2)CC1=O` [Compound 45], the IC50 with LNcap cells stood at 1.7 nM. On AKT1 (S473), this compound yielded an IC50 of 7.7 nM. The same compound had a t1/2z in series [1] (IG 10 mg/kg) of 2.06 h. Further, in series [1] (IV 1 mg/kg), the Cl is 0.23, the t1/2z is listed as 1.159 h, the AUC(0-inf) came out at 4340 ng·h/mL and the AUC(0-t) was determined as 4240 ng·h/mL. Besides, in series [1] (IV 1 mg/kg), the Vd stood at 5.42 L/kg and the MRT last came out at 1.18 h. In series [1] (po, IG 10 mg/kg), the AUC(0-inf) was 14500 ng·h/mL, the AUC(0-t) was 14500 ng·h/mL, the peak level (Cmax) was 4020 ng/mL and the Tmax is 0.25 h. Besides, the MRT last in series [1] (po, IG 10 mg/kg) was determined as 3.95 h. Also, in series [1] (po), the bioavailability worked out at 34.3%.
